Measurements reported in PubChem BioAssay AID248 (DTP/NCI, 2004).
Where “and” joins values, the source holds several entries; their conditions need not be identical. Equal entries are not always repeated. Inconclusive results and toxic doses are left out.

Tested on: L1210 leukemia ip in BDF1 mice, survival T/C
Test: NCI In Vivo Anticancer Drug Screen. Data for tumor model L1210 Leukemia (intraperitoneal) in B6D2F1 (BDF1) mice
Settings: endpoint: mean survival time, higher = longer survival
Method in brief: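 Antitumor effect is assessed in tumor-bearing animals. Survival in the compound arm is compared with a vehicle-dosed control arm and expressed as their quotient.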

[1] = dose: 75.0 mg/kg/injection, schedule: Q01DX001 (ip), vehicle: other
[2] = dose: 150.0 mg/kg/injection, schedule: Q01DX001 (ip), vehicle: other
[3] = dose: 100.0 mg/kg/injection, schedule: Q04DX003 (ip), vehicle: saline
[4] = dose: 200.0 mg/kg/injection, schedule: Q04DX003 (ip), vehicle: saline
[5] = dose: 400.0 mg/kg/injection, schedule: Q04DX003 (ip), vehicle: saline
[6] = dose: 100.0 mg/kg/injection, schedule: Q01DX009 (ip), vehicle: saline with Tween-80
[7] = dose: 100.0 mg/kg/injection, schedule: Q04DX003 (ip), vehicle: saline with Tween-80
[8] = dose: 200.0 mg/kg/injection, schedule: Q01DX009 (ip), vehicle: saline with Tween-80
[9] = dose: 200.0 mg/kg/injection, schedule: Q04DX003 (ip), vehicle: saline with Tween-80
[10] = dose: 400.0 mg/kg/injection, schedule: Q01DX009 (ip), vehicle: saline with Tween-80
[11] = dose: 400.0 mg/kg/injection, schedule: Q04DX003 (ip), vehicle: saline with Tween-80
[12] = dose: 100.0 mg/kg/injection, schedule: Q04DX003 (ip), vehicle: Klucel (hydroxypropylcellulose) (HPC)
[13] = dose: 200.0 mg/kg/injection, schedule: Q04DX003 (ip), vehicle: Klucel (hydroxypropylcellulose) (HPC)
[14] = dose: 400.0 mg/kg/injection, schedule: Q04DX003 (ip), vehicle: Klucel (hydroxypropylcellulose) (HPC)
[15] = dose: 400.0 mg/kg/injection, schedule: Q01DX009 (ip), vehicle: saline

CCCCCCCC(N)C(=O)O (centres undefined)
T/C (dose: 100.0 mg/kg/injection, schedule: Q04DX002 (ip), vehicle: gum acacia): 95 % of control | T/C (dose: 200.0 mg/kg/injection, schedule: Q04DX002 (ip), vehicle: gum acacia): 104 % of control | T/C (dose: 400.0 mg/kg/injection, schedule: Q04DX002 (ip), vehicle: gum acacia): 88 % of control

CN=C(Nc1ccc(N(C)C)cc1)SC
T/C [1]: 105 % of control | T/C [2]: 103 % of control

O=C(C1C2CCC(CC2)C1C(=O)N1CCCCC1)N1CCCCC1 (centres undefined)
T/C [3]: 108 % of control | T/C [4]: 100 % of control | T/C [5]: 100 % of control

O=C(Nc1ncc([N+](=O)[O-])s1)c1ccc([N+](=O)[O-])cc1Cl
T/C (dose: 5.0 mg/kg/injection, schedule: Q01DX009 (ip), vehicle: Klucel (hydroxypropylcellulose) (HPC)): 94 % of control | T/C (dose: 5.0 mg/kg/injection, schedule: Q04DX003 (ip), vehicle: Klucel (hydroxypropylcellulose) (HPC)): 100 % of control | T/C (dose: 10.0 mg/kg/injection, schedule: Q01DX009 (ip), vehicle: Klucel (hydroxypropylcellulose) (HPC)): 92 % of control | T/C (dose: 10.0 mg/kg/injection, schedule: Q04DX003 (ip), vehicle: Klucel (hydroxypropylcellulose) (HPC)): 95 % of control | T/C (dose: 20.0 mg/kg/injection, schedule: Q01DX009 (ip), vehicle: Klucel (hydroxypropylcellulose) (HPC)): 99 % of control | T/C (dose: 20.0 mg/kg/injection, schedule: Q04DX003 (ip), vehicle: Klucel (hydroxypropylcellulose) (HPC)): 94 % of control

O=C(/C=C/c1ccc(Cl)cc1Cl)c1ccc(Cl)cc1
T/C [6]: 105 % of control | T/C [7]: 95 % of control | T/C [8]: 90 % of control | T/C [9]: 93 % of control | T/C [10]: 90 % of control | T/C [11]: 88 % of control

O=C(Nc1cccc(C(F)(F)F)c1)Nc1ccccc1C(F)(F)F
T/C (dose: 100.0 mg/kg/injection, schedule: Q01DX009 (ip), vehicle: gum acacia): 101 % of control | T/C (dose: 200.0 mg/kg/injection, schedule: Q01DX009 (ip), vehicle: gum acacia): 101 % of control | T/C (dose: 400.0 mg/kg/injection, schedule: Q01DX009 (ip), vehicle: gum acacia): 104 % of control

Cn1c(=O)c2ccccc2n(C)c1=O
T/C [12]: 96 % of control | T/C [13]: 102 % of control | T/C [14]: 100 % of control

CCOC(=O)CCC(NC(=O)N(CCCl)CCCl)C(=O)OCC (centres undefined)
T/C (dose: 250.0 mg/kg/injection, schedule: Q01DX Z (ip), vehicle: water): 90 % of control | T/C [15]: 183 % of control

CC(=O)OCN1C(=O)C2C3CCC(O3)C2C1=O (centres undefined)
T/C (dose: 25.0 mg/kg/injection, schedule: Q04DX003 (ip), vehicle: saline with Tween-80): 104 % of control | T/C (dose: 50.0 mg/kg/injection, schedule: Q04DX003 (ip), vehicle: saline with Tween-80): 98 % of control | T/C (dose: 100.0 mg/kg/injection, schedule: Q01DX001 (ip), vehicle: saline with Tween-80): 106 % of control | T/C [7]: 95 % of control and 104 % of control | T/C (dose: 200.0 mg/kg/injection, schedule: Q01DX001 (ip), vehicle: saline with Tween-80): 98 % of control

CCOC(=O)c1cnc(NN)nc1NCc1ccccc1
T/C (dose: 50.0 mg/kg/injection, schedule: Q01DX009 (ip), vehicle: saline with Tween-80): 93 % of control | T/C [6]: 89 % of control | T/C [7]: 87 % of control | T/C [8]: 98 % of control | T/C [9]: 96 % of control

Cc1cccc(Cl)c1NC(=O)C(C)N1CCCC1 (centres undefined)
T/C (dose: 12.5 mg/kg/injection, schedule: Q01DX009 (ip), vehicle: saline): 101 % of control | T/C (dose: 25.0 mg/kg/injection, schedule: Q01DX009 (ip), vehicle: saline): 98 % of control | T/C (dose: 50.0 mg/kg/injection, schedule: Q01DX009 (ip), vehicle: saline): 93 % of control

c1ccc2cc(CCc3cc4ccccc4cn3)ncc2c1
T/C [3]: 105 % of control | T/C [4]: 94 % of control | T/C [5]: 87 % of control

Nc1ccc(N=Nc2ccc(S(N)(=O)=O)cc2)cn1
T/C (dose: 50.0 mg/kg/injection, schedule: Q01DX001 (ip), vehicle: other): 97 % of control | T/C (dose: 100.0 mg/kg/injection, schedule: Q01DX001 (ip), vehicle: other): 94 % of control | T/C (dose: 200.0 mg/kg/injection, schedule: Q01DX001 (ip), vehicle: other): 103 % of control | T/C (dose: 400.0 mg/kg/injection, schedule: Q01DX001 (ip), vehicle: other): 100 % of control

CN(C)N=Nc1n[nH]nc1C(N)=O
T/C (dose: 50.0 mg/kg/injection, schedule: Q01DX001 (ip), vehicle: saline): 102 % of control | T/C (dose: 66.0 mg/kg/injection, schedule: Q01DX Z (ip), vehicle: carboxymethylcellulose (CMC)): 112 % of control | T/C (dose: 100.0 mg/kg/injection, schedule: Q01DX001 (ip), vehicle: saline): 109 % of control and 118 % of control | T/C (dose: 100.0 mg/kg/injection, schedule: Q01DX009 (ip), vehicle: saline): 113 % of control | T/C (dose: 100.0 mg/kg/injection, schedule: Q01DX Z (ip), vehicle: carboxymethylcellulose (CMC)): 106 % of control | T/C [3]: 98 % of control | T/C (dose: 134.0 mg/kg/injection, schedule: Q01DX009 (ip), vehicle: saline): 117 % of control | T/C (dose: 168.0 mg/kg/injection, schedule: Q01DX Z (ip), vehicle: carboxymethylcellulose (CMC)): 116 % of control | T/C (dose: 200.0 mg/kg/injection, schedule: Q01DX001 (ip), vehicle: saline): 107 % of control and 118 % of control | T/C [4]: 120 % of control | T/C (dose: 287.0 mg/kg/injection, schedule: Q04DX003 (ip), vehicle: saline): 102 % of control | T/C (dose: 287.5 mg/kg/injection, schedule: Q01DX001 (ip), vehicle: saline): 103 % of control | T/C (dose: 400.0 mg/kg/injection, schedule: Q01DX001 (ip), vehicle: saline): 115 % of control | T/C [15]: 154 % of control | T/C [5]: 124 % of control | T/C (dose: 575.0 mg/kg/injection, schedule: Q01DX001 (ip), vehicle: saline): 109 % of control | T/C (dose: 575.0 mg/kg/injection, schedule: Q04DX003 (ip), vehicle: saline): 110 % of control | T/C (dose: 1150.0 mg/kg/injection, schedule: Q01DX001 (ip), vehicle: saline): 117 % of control | T/C (dose: 1150.0 mg/kg/injection, schedule: Q04DX003 (ip), vehicle: saline): 112 % of control

O=C(O)c1cscc1-c1c2ccccc2cc2ccccc12
T/C [7]: 88 % of control | T/C [9]: 91 % of control | T/C [11]: 88 % of control

CCCCCCN(S(=O)(=O)c1ccc([N+](=O)[O-])cc1)S(=O)(=O)c1ccc([N+](=O)[O-])cc1
T/C [12]: 96 % of control | T/C [13]: 88 % of control | T/C [14]: 88 % of control

CCOC(=O)/C(C#N)=C1\CCC=C(C)C1
T/C [1]: 97 % of control | T/C [2]: 102 % of control | T/C (dose: 300.0 mg/kg/injection, schedule: Q01DX001 (ip), vehicle: other): 98 % of control

CC(=O)Nc1nc(C=O)c(CCCCc2ccccc2)c(=O)[nH]1
T/C (dose: 80.0 mg/kg/injection, schedule: Q01DX001 (ip), vehicle: Klucel (hydroxypropylcellulose) (HPC)): 102 % of control | T/C (dose: 160.0 mg/kg/injection, schedule: Q01DX001 (ip), vehicle: Klucel (hydroxypropylcellulose) (HPC)): 107 % of control | T/C (dose: 320.0 mg/kg/injection, schedule: Q01DX001 (ip), vehicle: Klucel (hydroxypropylcellulose) (HPC)): 107 % of control

COc1ccc(C(=O)Nc2ccccc2)cc1[N+](=O)[O-]
T/C (dose: 100.0 mg/kg/injection, schedule: Q01DX009 (ip), vehicle: Klucel (hydroxypropylcellulose) (HPC)): 96 % of control | T/C [6]: 101 % of control | T/C [7]: 101 % of control | T/C (dose: 200.0 mg/kg/injection, schedule: Q01DX009 (ip), vehicle: Klucel (hydroxypropylcellulose) (HPC)): 98 % of control | T/C [8]: 94 % of control | T/C [9]: 97 % of control | T/C (dose: 400.0 mg/kg/injection, schedule: Q01DX009 (ip), vehicle: Klucel (hydroxypropylcellulose) (HPC)): 98 % of control | T/C [10]: 86 % of control | T/C [11]: 101 % of control

CCCN(CCC)CC(O)c1ccc2cccc3c2c1CC3 (centres undefined)
T/C (dose: 75.0 mg/kg/injection, schedule: Q01DX001 (ip), vehicle: saline): 104 % of control | T/C (dose: 150.0 mg/kg/injection, schedule: Q01DX001 (ip), vehicle: saline): 98 % of control | T/C (dose: 300.0 mg/kg/injection, schedule: Q01DX001 (ip), vehicle: saline): 95 % of control

CCCOC(C)(C)CCC/C(C)=C/COc1ccc(CC)cc1
T/C (dose: 100.0 mg/kg/injection, schedule: Q04DX002 (ip), vehicle: saline with Tween-80): 96 % of control | T/C (dose: 200.0 mg/kg/injection, schedule: Q04DX002 (ip), vehicle: saline with Tween-80): 92 % of control | T/C (dose: 400.0 mg/kg/injection, schedule: Q04DX002 (ip), vehicle: saline with Tween-80): 105 % of control
